The source of these data is ChEMBL document CHEMBL3124938, “Synthesis and biological evaluation of positron emission tomography radiotracers targeting serotonin 4 receptors in brain: [18F]MNI-698 and [18F]MNI-699” (Bioorg Med Chem Lett, 2013).

Series [1] in a line: Drug uptake in rhesus monkey globus pallidus at 166.6 +/- 11.9 MBq, iv by PET analysis. Type of series: ADME, organism-based, Macaca mulatta. Conditions: in vivo; call rule not given here.
In series [2] the test system is Striatum. The experiment in a line: Standardized uptake value ratio in rhesus monkey striatum at 166.6 +/- 11.9 MBq, iv by PET analysis. Type of series: ADME, organism-based, Macaca mulatta. Conditions: in vivo.
The test system of series [3] is Striatum. The experiment in a line: Drug uptake in rhesus monkey striatum at 166.6 +/- 11.9 MBq, iv by PET analysis. It is filed as ADME, organism-based, Macaca mulatta. Conditions: in vivo.
Series [4] can be described thus: Drug uptake in rhesus monkey temporal cortex at 166.6 +/- 11.9 MBq, iv by PET analysis. It is filed as ADME, organism-based, Macaca mulatta. To be noted: in vivo.
The nature of series [5]: Drug uptake in rhesus monkey occipital cortex at 166.6 +/- 11.9 MBq, iv by PET analysis. Conditions: in vivo. It is filed as ADME, organism-based, Macaca mulatta.
A short description of series [6]: Standardized uptake value ratio in rhesus monkey putamen at 166.6 +/- 11.9 MBq, iv by PET analysis. Type of series: ADME, organism-based, Macaca mulatta. Conditions: in vivo.
Series [7] is described as follows: Standardized uptake value ratio in rhesus monkey globus pallidus at 166.6 +/- 11.9 MBq, iv by PET analysis. Conditions: in vivo. Type of series: ADME, organism-based, Macaca mulatta.
A short description of series [8]: Drug uptake in rhesus monkey thalamus at 166.6 +/- 11.9 MBq, iv by PET analysis. Type of series: ADME, organism-based, Macaca mulatta. To be noted: in vivo.
A short description of series [9]: Drug uptake in rhesus monkey substantia nigra at 166.6 +/- 11.9 MBq, iv by PET analysis. It is filed as ADME, organism-based, Macaca mulatta. To be noted: in vivo.
Series [10] relates to Brain. Kind of series: Drug uptake in rhesus monkey brain at 166.6 +/- 11.9 MBq, iv after 20 mins by PET analysis. It is filed as ADME, organism-based, Macaca mulatta. To be noted: in vivo.
A short description of series [11]: Standardized uptake value ratio in rhesus monkey substantia nigra at 166.6 +/- 11.9 MBq, iv by PET analysis. Type of series: ADME, organism-based, Macaca mulatta. Conditions: in vivo.
The nature of series [12]: Drug uptake in rhesus monkey frontal cortex at 166.6 +/- 11.9 MBq, iv by PET analysis. It is filed as ADME, organism-based, Macaca mulatta. Conditions: in vivo.
In series [13] the test system is Hippocampus. Kind of series: Standardized uptake value ratio in rhesus monkey hippocampus at 166.6 +/- 11.9 MBq, iv by PET analysis. Type of series: ADME, organism-based, Macaca mulatta. To be noted: in vivo.
A short description of series [14]: Standardized uptake value ratio in rhesus monkey caudate at 166.6 +/- 11.9 MBq, iv by PET analysis. Type of series: ADME, organism-based, Macaca mulatta. Conditions: in vivo.
Series [15] in a line: Drug uptake in rhesus monkey parietal cortex at 166.6 +/- 11.9 MBq, iv by PET analysis. Type of series: ADME, organism-based, Macaca mulatta. Conditions: in vivo.
Series [16] deals with Hippocampus. The experiment in a line: Drug uptake in rhesus monkey hippocampus at 166.6 +/- 11.9 MBq, iv by PET analysis. Type of series: ADME, organism-based, Macaca mulatta. To be noted: in vivo.
Series [17] is described as follows: Drug uptake in rhesus monkey putamen at 166.6 +/- 11.9 MBq, iv by PET analysis. Type of series: ADME, organism-based, Macaca mulatta. Conditions: in vivo.
Series [18] can be described thus: Octanol-buffer partition coefficient, log D of the compound at pH 7.4 by shake flask method. It is filed as physicochemical.
A short description of series [19]: Drug uptake in rhesus monkey caudate at 166.6 +/- 11.9 MBq, iv by PET analysis. Conditions: in vivo. It is filed as ADME, organism-based, Macaca mulatta.
The nature of series [20]: Drug uptake in rhesus monkey cerebellum at 166.6 +/- 11.9 MBq, iv by PET analysis. To be noted: in vivo. It is filed as ADME, organism-based, Macaca mulatta.
Series [21] deals with T1, 5-hydroxytryptamine receptor 4 (Rattus norvegicus, UniProt Q62758). Kind of series: Displacement of [3H]GR113808 from 5HT4 receptor in Sprague-Dawley rat striatal membranes after 1 hr by […]. Set-up: species or system Striatum, Membrane. Background: Loss of bound radioactivity is the signal in a displacement assay; it reports binding, not function.
Series [22] has as its target T1, 5-hydroxytryptamine receptor 4. The experiment in a line: Binding affinity to 5HT4 receptor in rat striatal membranes. It is filed as cell membranes, Striatum, Membrane.
Series [23] has as its target Serotonin 4 (5-HT4) receptor (Sus scrofa, UniProt Q6Q253). Kind of series: Binding affinity to 5HT4 receptor in pig striatal membranes. It is filed as cell membranes, Striatum, Membrane.
Series [24] concerns the target 5-hydroxytryptamine receptor 4 (Cavia porcellus, UniProt O70528). The experiment in a line: Binding affinity to 5HT4 receptor in guinea pig distal colon.
The subject of series [25] is Rhesus monkey. Kind of series: Ex vivo receptor occupancy of 5HT4 receptor in rhesus monkey at 0.5 mg/kg. It is filed as functional, Macaca mulatta.

T1 sequence (Q62758 whole entry): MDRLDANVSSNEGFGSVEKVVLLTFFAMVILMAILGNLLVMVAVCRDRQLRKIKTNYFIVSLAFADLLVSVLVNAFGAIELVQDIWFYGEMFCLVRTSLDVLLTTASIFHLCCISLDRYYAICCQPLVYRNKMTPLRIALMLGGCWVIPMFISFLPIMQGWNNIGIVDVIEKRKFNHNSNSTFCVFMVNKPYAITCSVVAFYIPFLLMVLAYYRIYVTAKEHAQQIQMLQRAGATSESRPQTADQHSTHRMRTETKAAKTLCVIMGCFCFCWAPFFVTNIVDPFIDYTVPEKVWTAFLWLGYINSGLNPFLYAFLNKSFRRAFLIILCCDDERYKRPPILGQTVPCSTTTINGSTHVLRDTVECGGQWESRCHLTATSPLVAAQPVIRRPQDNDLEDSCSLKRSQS
Chain of Serotonin 4 (5-HT4) receptor (Q6Q253 whole entry): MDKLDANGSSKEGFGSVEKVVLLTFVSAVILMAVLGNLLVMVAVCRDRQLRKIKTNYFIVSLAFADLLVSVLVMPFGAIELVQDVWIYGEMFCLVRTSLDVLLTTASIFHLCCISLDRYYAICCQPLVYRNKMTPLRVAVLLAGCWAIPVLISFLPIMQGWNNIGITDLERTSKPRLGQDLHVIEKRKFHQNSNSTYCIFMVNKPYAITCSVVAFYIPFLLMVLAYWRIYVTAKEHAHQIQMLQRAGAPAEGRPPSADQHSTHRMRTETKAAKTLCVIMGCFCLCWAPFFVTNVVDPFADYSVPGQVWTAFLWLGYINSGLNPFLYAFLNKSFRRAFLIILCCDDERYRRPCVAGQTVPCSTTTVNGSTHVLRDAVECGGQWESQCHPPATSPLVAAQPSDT
Chain of 5-hydroxytryptamine receptor 4 (Cavia porcellus, UniProt O70528) (O70528 whole entry): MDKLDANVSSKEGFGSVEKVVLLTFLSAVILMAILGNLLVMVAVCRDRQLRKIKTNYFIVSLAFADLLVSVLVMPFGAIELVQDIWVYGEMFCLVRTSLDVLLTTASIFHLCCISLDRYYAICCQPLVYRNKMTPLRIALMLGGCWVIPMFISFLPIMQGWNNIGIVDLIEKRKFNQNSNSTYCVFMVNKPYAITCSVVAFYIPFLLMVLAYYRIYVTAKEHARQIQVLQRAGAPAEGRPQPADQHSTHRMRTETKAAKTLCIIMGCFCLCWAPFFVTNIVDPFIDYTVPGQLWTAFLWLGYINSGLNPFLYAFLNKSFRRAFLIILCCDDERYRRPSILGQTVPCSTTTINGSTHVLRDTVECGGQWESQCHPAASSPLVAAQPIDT

What is called logD is lipophilicity at a set pH, counting ionised and neutral species. On to `Nc1c(Cl)cc(C(=O)OCC2CCN(CCC[18F])CC2)c2c1OCCO2`, for which the Drug uptake entry in series [1], in series [3], in [4], in [5], in [8] and in [9] was “Active” throughout. The Drug uptake was 5.6 %ID in series [10]; “Active” in series [12]; “Active” in series [15]; “Active” in series [16]; “Active” in [17]; “Active” in [19]. In addition, in series [20], the Drug uptake entry is “Active”. Also, the SUV in series [2], in [6], in series [7], in series [11], in series [13] and in series [14] was 3 throughout. The logD in [18] turned out to be 1.4.
For orientation: Ki means a dissociation constant, usually derived from enzyme kinetics or from competition with a known ligand. Compound `Nc1c(Cl)cc(C(=O)OCC2CCN(CCCF)CC2)c2c1OCCO2` returned an inhibition constant Ki in series [21] of 0.07 nM.
Compound `Nc1c(Cl)cc(C(=O)OCC2CCN(CCF)CC2)c2c1OCCO2` yielded a Ki in series [21] of 0.2 nM.
As a reminder, the Kd is the concentration at which binding is half-saturated. Consider `CN1CCC(COC(=O)c2cc(Cl)c(N)c3c2OCCO3)CC1`, for which the Kd in series [22] was found to be 0.3 nM; in series [23] it was 0.08 nM.
Turning to `CCCCN1CCC(COC(=O)c2cc(I)c(N)c3c2OCCO3)CC1`, the Kd in series [22] was determined as 0.3 nM.
For `CCCCN1CCC(COC(=O)c2cc(Cl)c(N)c3c2OCCO3)CC1`, binding in [24] was put at a Kd of 0.02 nM. This compound displayed an Activity in series [25] of 93%.
For the compound `Nc1c(Cl)cc(C(=O)OCC2CCN(CC[18F])CC2)c2c1OCCO2`, the Drug uptake entry in [1], in series [3], in [4], in series [5], in series [8] and in series [9] was “Active” each time. Besides, the Drug uptake is 6.6 %ID in [10]; “Active” in series [12]; “Active” in series [15]; “Active” in series [16]; “Active” in series [17]; “Active” in series [19]. Besides, in [20], the Drug uptake result is “Active”. In addition, the SUV in [2], in series [6], in [7], in [11], in series [13] and in [14] was 3 in each case. The compound also came in with a logD in [18] of 1.8.
